In PubChem BioAssay (NCI):
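A five-concentration, 48-hour dose response in 96-well plates underlies each endpoint, interpolated linearly between surrounding concentrations. Here, GI50 denotes the concentration required for 50% inhibition of growth. The concentration for full growth arrest is given as TGI.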

Columns and labels:
Assay in all cases: growth of human tumour cells (NCI), 48 h
786-0 renal = tested on: 786-0 renal
A498 renal = tested on: A498 renal
A549 NSCLC = tested on: A549 NSCLC
ACHN renal = tested on: ACHN renal
BT-549 breast = tested on: BT-549 breast
CAKI-1 renal = tested on: CAKI-1 renal
CCRF-CEM leukemia = tested on: CCRF-CEM leukemia
COLO 205 colon = tested on: COLO 205 colon
DU-145 prostate = tested on: DU-145 prostate
EKVX NSCLC = tested on: EKVX NSCLC
HCC-2998 colon = tested on: HCC-2998 colon
HCT-116 colon = tested on: HCT-116 colon
HCT-15 colon = tested on: HCT-15 colon
HL-60(TB) leukemia = tested on: HL-60(TB) leukemia
HOP-62 NSCLC = tested on: HOP-62 NSCLC
HOP-92 NSCLC = tested on: HOP-92 NSCLC
HT29 colon = tested on: HT29 colon
IGROV1 ovarian = tested on: IGROV1 ovarian
K-562 leukemia = tested on: K-562 leukemia
KM12 colon = tested on: KM12 colon
LOX IMVI melanoma = tested on: LOX IMVI melanoma
M14 melanoma = tested on: M14 melanoma
MALME-3M melanoma = tested on: MALME-3M melanoma
MCF7 breast = tested on: MCF7 breast
MDA-MB-231 breast = tested on: MDA-MB-231 breast
MDA-MB-435 = tested on: MDA-MB-435
MOLT-4 leukemia = tested on: MOLT-4 leukemia
NCI-H226 lung = tested on: NCI-H226 lung
NCI-H23 lung = tested on: NCI-H23 lung

COc1ccc([C@@H]2C(=O)N(c3cc(OC)c(OC)c(OC)c3)[C@H]2c2ccc(OC)c(O)c2)cc1
GI50 (786-0 renal): 0.0762 µM | TGI (786-0 renal): > 100 µM | GI50 (A498 renal): 8.56 µM | TGI (A498 renal): > 100 µM | GI50 (A549 NSCLC): 0.0438 µM | TGI (A549 NSCLC): > 100 µM | GI50 (ACHN renal): 0.0847 µM | TGI (ACHN renal): 32.4 µM | GI50 (BT-549 breast): 0.0555 µM | TGI (BT-549 breast): 3.2 µM | GI50 (CAKI-1 renal): 0.0681 µM | TGI (CAKI-1 renal): > 100 µM | GI50 (CCRF-CEM leukemia): 0.0356 µM | TGI (CCRF-CEM leukemia): > 100 µM | GI50 (COLO 205 colon): 0.0546 µM | TGI (COLO 205 colon): 0.205 µM | GI50 (DU-145 prostate): 0.0596 µM | TGI (DU-145 prostate): > 100 µM | GI50 (EKVX NSCLC): 0.0498 µM | TGI (EKVX NSCLC): > 100 µM | GI50 (HCC-2998 colon): 0.259 µM | TGI (HCC-2998 colon): 18.5 µM | GI50 (HCT-116 colon): 0.0353 µM | TGI (HCT-116 colon): > 100 µM | GI50 (HCT-15 colon): 0.0348 µM | TGI (HCT-15 colon): > 100 µM | GI50 (HL-60(TB) leukemia): 0.0214 µM | TGI (HL-60(TB) leukemia): 0.0527 µM | GI50 (HOP-62 NSCLC): 0.0411 µM | TGI (HOP-62 NSCLC): > 100 µM | GI50 (HOP-92 NSCLC): 6.02 µM | TGI (HOP-92 NSCLC): 48.8 µM | GI50 (HT29 colon): 0.0431 µM | TGI (HT29 colon): 11.5 µM | GI50 (IGROV1 ovarian): 0.063 µM | TGI (IGROV1 ovarian): > 100 µM | GI50 (K-562 leukemia): 0.0306 µM | TGI (K-562 leukemia): 30.5 µM | GI50 (KM12 colon): 0.0459 µM | TGI (KM12 colon): > 100 µM | GI50 (LOX IMVI melanoma): 0.0376 µM | TGI (LOX IMVI melanoma): > 100 µM | GI50 (M14 melanoma): 0.0696 µM | TGI (M14 melanoma): 48.1 µM | GI50 (MALME-3M melanoma): 0.061 µM | TGI (MALME-3M melanoma): 40.8 µM | GI50 (MCF7 breast): 0.0381 µM | TGI (MCF7 breast): > 100 µM | GI50 (MDA-MB-231 breast): 0.0367 µM | TGI (MDA-MB-231 breast): > 100 µM | GI50 (MDA-MB-435): 0.0301 µM | TGI (MDA-MB-435): > 100 µM | GI50 (MOLT-4 leukemia): 0.0382 µM | TGI (MOLT-4 leukemia): 31.6 µM | GI50 (NCI-H226 lung): 0.0362 µM | TGI (NCI-H226 lung): 37.2 µM | GI50 (NCI-H23 lung): 0.047 µM
